Among the data in patent US20150086480A1, “HETEROARYL INHIBITORS OF PDE4” (Tetra Discovery Partners, LLC, priority 2013, published 2015) are IC50 values, retold here.

Experiment [1] deals with human PDE4D7 (mutation of serine 54 to aspartic acid) (Homo sapiens, UniProt Q08499, S190D). Kind of experiment: Kinetic assay of PDE4 activity (cAMP hydrolysis, coupled-enzyme fluorescence). It is filed as biochemical. The following applies: inhibition of cAMP hydrolysis by human PDE4D; each concentration tested in duplicate; FIG. 1; read-out: One-half maximal inhibition of PDE4D (IC50). How it is done:
PDE4D inhibition is measured by the method of Burgin et al, (2010) Design of Phosphodiesterase Type 4D (PDE4D) Allosteric Modulators for Cognition with Improved Safety. Nature Biotechnology 28:63-70. Each concentration of Example 1 was tested in duplicate (round symbols).
PDE4 activity may be measured by any method known in the art. Here, a kinetic assay of cAMP hydrolysis by purified PDE4 was used, in which PDE4 activity was measured by coupling the formation of the PDE4 reaction product, 5′-adenosine monophosphate, to the oxidation of reduced nicotinamide adenine dinucleotide (NADH) by the use of three coupling enzymes (myokinase, pyruvate kinase and lactate dehydrogenase), which allows fluorescent determination of reaction rates. Assays are performed in 96-well plates in a total volume of 200 μl/well. Compounds are dissolved in dimethylsulfoxide (DMSO) and added to plates in a volume of 10 μl followed by addition of 165 μl of assay mix. Plates are pre-incubated at 25° C. for 15 min and the reactions are initiated by the addition of 25 μl of cAMP followed by thorough mixing. Reaction rates are measured by monitoring the decrease in fluorescence using excitation at 355 nm and emission at 460 nm for a period of 10 min in a fluorescence plate reader. Initial rates (slopes) are determined from linear portions of the progress curves. […]

Another experiment relates to recombinant human PDE4. Conditions: read-out: reported IC50 with respect to inhibiting recombinant human PDE4; cited from earlier work.

human PDE4D7 (mutation of serine 54 to aspartic acid), sequence (Q08499 1-748 isoform Q08499-11 S129D): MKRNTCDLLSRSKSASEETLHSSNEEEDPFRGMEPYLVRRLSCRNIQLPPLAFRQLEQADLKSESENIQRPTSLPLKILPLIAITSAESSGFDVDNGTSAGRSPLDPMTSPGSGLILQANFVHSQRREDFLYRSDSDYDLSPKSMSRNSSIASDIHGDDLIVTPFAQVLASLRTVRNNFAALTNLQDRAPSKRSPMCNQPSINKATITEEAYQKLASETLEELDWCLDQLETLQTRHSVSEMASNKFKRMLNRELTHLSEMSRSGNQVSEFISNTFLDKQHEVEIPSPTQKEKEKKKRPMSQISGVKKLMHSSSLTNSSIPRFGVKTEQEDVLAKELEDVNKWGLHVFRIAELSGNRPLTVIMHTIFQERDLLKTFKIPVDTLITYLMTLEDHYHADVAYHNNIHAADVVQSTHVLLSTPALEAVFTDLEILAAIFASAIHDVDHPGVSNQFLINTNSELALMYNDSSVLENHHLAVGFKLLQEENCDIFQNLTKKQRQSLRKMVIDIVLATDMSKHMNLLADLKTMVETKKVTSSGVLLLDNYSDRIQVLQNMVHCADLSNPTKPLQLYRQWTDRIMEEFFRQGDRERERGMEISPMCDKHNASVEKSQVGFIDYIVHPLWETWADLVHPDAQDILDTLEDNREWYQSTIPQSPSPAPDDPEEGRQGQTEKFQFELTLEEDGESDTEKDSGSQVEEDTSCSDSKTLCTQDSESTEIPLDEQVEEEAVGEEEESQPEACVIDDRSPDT

`O=[N+]([O-])c1cccc(-c2cc(Cc3ccc(F)cc3)cc3c2OCC3)c1` [Example 1, 5-[(4-fluorophenyl)methyl]-7-(3-nitrophenyl)-2,3-dihydrobenzofuran]: in experiment [1], the IC50 (in general, the concentration needed to halve the response being measured) came out at 0.00015 µM.

Regarding `COc1ccc(C2CNC(=O)C2)cc1OC1CCCC1` (centres unmarked) [rolipram], the IC50 with recombinant human PDE4 was ~0.2 µM.
